Entries after “also recorded” stand apart in the source; their conditions may differ.
Columns and labels:
[1] = biological target: T1, recombinant human GSK3β (Homo sapiens, UniProt P49841); test: GSK3β kinase activity assay (Kinase-Glo luminescence); assay type: biochemical
T1 construct: purchased Biomol, Hamburg, Germany
Method: The kinase activity assay was performed as previously described by Schmole et. al., 2010 (Schmole et al., 2010, Novel indolylmaleimide acts as GSK-3beta inhibitor in human neural progenitor cells. Bioorganic medicinal chemistry, 18, 6785-95). Briefly, recombinant human GSK3β (Biomol, Hamburg, Germany) was incubated with its substrate phospho glycogen synthase peptide 2 (pGS2) (Millipore, Billerica, USA), ATP (Cell Signaling, Frankfurt am Main, Germany) and different concentrations of PDA-66 for 30 min at 30° C. After addition of Kinase-Glo (Promega, Mannheim, Germany) and 10 min of incubation at room temperature the luminescence signal was measured with a Glomax 96 microplate reader (Promega). More specifically, recombinant human GSK3β was incubated with pGS2, ATP and different concentrations of PDA-66. […] In each experiment the concentrations of PDA-66 and the control were tested with 8 replicates. * Significant treatment effect vs. DMSO control, α=0.05.
The effect of PDA-66 on the enzyme activity of GSK3β was determined by incubation of the enzyme with a specific substrate, PDA-66 and ATP. With growing inhibitory effect there is more ATP present after the incubation. In a second step remaining ATP is converted to a luminescence signal, which is inversely proportional to the enzyme activity.

[2] = test system: cleavage of Caspase 3, 7 and PARP; test: Western blot, induction of apoptosis; assay type: cell-based, human; details: all cell lines (SEM shown exemplarily); 48 h after addition
Method: (A) Cells were treated with PDA-66 for up to 72 h and stained with Annexin V FITC and Propidium iodide (PI). Rates of early apoptotic (FITC^+, PI^−) and late apoptotic and necrotic (FITC^+, PI^+) cells were measured by flow cytometry. Significant induction of apoptosis could be observed in all cell lines after 48 h of incubation as well as tendential induction of necrosis at both points of time. […] (B) Induction of apoptosis was confirmed by Western blot. Cells were treated with different concentrations of PDA-66 and total cell lysates (25 μg) were analyzed by Western blot to detect cleavage of Caspase 3, 7 and PARP. GAPDH was used as loading control.
Additionally, the effect of PDA-66 on apoptosis was determined by and western blot. For protein extraction cells were washed twice in PBS and lysed with RIPA buffer (50 mM Tris HCl pH 7.4; 150 mM NaCl; 0.1% SDS and 1% NP40) including protease and phosphatase inhibitors (Roche Applied Science, Mannheim, Germany). Samples were incubated for 20 min at 4° C. and frozen at −20° C. Cell extracts were thawed and centrifuged at 12000 g for 10 min at 4° C. Total protein concentration of supernatants was determined using Bio-Rad Protein Assay (Bio-Rad, München, Germany).
Equal amounts of protein samples were separated by SDS-polyacrylamid gel (8% or 15%) electrophoresis and transferred onto a PVDF membrane (Amersham Biosciences, Buckinghamshire, UK). […]

[3] = test system: PI3K/Akt and Wnt/β-catenin pathway in Jurkat cells; test: Western blot, PI3K/Akt and Wnt/β-catenin pathway; assay type: cell-based, human
Method: (§1) After treatment with PDA-66 and DMSO, respectively, cells were lyzed and protein expression analyzed with Western blot.
(§2) Protein extraction and Western blot was performed as described above. Following polyclonal antibodies were used: rabbit anti-cleaved caspase 3, rabbit anti-caspase 3, rabbit anti-cleaved PARP, rabbit anti-PARP, rabbit anti-cleaved caspase 7, rabbit anti-caspase 7, rabbit anti-pAktThr308, rabbit anti-pAktSer473, rabbit anti-Akt, rabbit anti-β-catenin, rabbit anti-pGSK3βSer9, rabbit anti-GSK3β, rabbit anti-p4EBP-1Ser65 and rabbit anti-4EBP-1 (all Cell Signaling Frankfurt/Main, Germany). Blots were incubated with mouse anti-GAPDH antibody (Invitrogen, Carlsbad, USA) as loading control.

[4] = test system: PI3K/Akt and Wnt/β-catenin pathway in Molt-4 cells; test: Western blot, PI3K/Akt and Wnt/β-catenin pathway; assay type: cell-based, human; details: incubation of 4 and 24 h
Method: as §1, §2

[5] = test system: PI3K/Akt and Wnt/β-catenin pathway in RS4;11 cells; test: Western blot, PI3K/Akt and Wnt/β-catenin pathway; assay type: cell-based, human; details: incubation of 4 and 24 h
Method: as §1, §2

[6] = test system: PI3K/Akt and Wnt/β-catenin pathway in SEM cells; test: Western blot, PI3K/Akt and Wnt/β-catenin pathway; assay type: cell-based, human
Method: as §1, §2

[7] = SEM cells shown exemplarily (FIG. 6A)
[8] = SEM cells, incubation of 4 and 24 h

T1 sequence (P49841 whole entry): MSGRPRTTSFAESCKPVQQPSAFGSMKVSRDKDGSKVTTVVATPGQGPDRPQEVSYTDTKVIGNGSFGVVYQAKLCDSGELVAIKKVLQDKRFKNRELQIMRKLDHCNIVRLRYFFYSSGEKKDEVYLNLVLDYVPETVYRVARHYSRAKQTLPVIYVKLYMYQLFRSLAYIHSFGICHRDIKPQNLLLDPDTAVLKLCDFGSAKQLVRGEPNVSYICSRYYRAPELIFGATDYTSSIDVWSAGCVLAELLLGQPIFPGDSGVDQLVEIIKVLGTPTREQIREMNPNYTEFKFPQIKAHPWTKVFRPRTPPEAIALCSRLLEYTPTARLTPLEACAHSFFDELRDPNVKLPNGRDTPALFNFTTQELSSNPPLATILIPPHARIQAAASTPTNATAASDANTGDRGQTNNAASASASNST

CC(=O)c1ccc(C2=C(c3c(C)[nH]c4ccccc34)C(=O)N(C)C2=O)cc1 [PDA-66, 3-(4-Acetylphenyl)-1-methyl-4-(2-methyl-1H-indol-3-yl)-1H-pyrrole-2,5-dione]
GSK3β enzyme activity ([1]; 10 μM PDA-66): seems to enhance enzyme activity
GSK3β kinase activity ([1]; 0.25-1 μM PDA-66, 30 min at 30° C., vs. DMSO control): significantly inhibited; also recorded: inhibition of the enzyme
dose response relationship of GSK3β kinase activity ([1]; FIG. 1): bell shaped dose response relationship
cleavage of caspases 3 and 7 and PARP [2]: induced cleavage
expression of p4EBP-1Ser65 ([3]; incubation of 4 and 24 h): decrease
expression of total 4EBP-1 ([3]; incubation of 4 and 24 h): decrease
pAktSer473 ([3]; incubation of 24 h): not confirmed by a rise
pAktThr308 ([3]; incubation of 24 h): increase
expression of p4EBP-1Ser65 [4]: increased expression; also recorded: increase
expression of p4EBP-1Ser65 [5]: decrease
expression of total 4EBP-1 [5]: decrease
expression of total Akt [6, 7]: no influence
expression of total GSK3β [6, 7]: no influence
expression of β-catenin [6, 7]: no influence
pGSK3βSer9 ([6]; SEM cells, after 4 h): small decrease; also recorded: slight decrease
expression of p4EBP-1Ser65 [6, 8]: decrease
expression of total 4EBP-1 [6, 8]: decrease
pAktSer473 ([6]; SEM cells, incubation of 24 h): not confirmed by an increase; also recorded: not confirmed by a rise
pAktThr308 ([6]; SEM cells, incubation of 24 h): slight increase

Source: patent US9724331B2, “Use of maleimide derivatives for preventing and treating leukemia” (CENTOGENE AG, priority 2012, dated 2017)
